Numbers after ± are expanded uncertainties. Blank lines part the entries; values can stand above or below the molecule they belong to.
Tests used:
[1] = refractive index (Na D-line) (dimensionless); settings: 298.15 K; 101.33 kPa; Liquid; Standard Abbe refractometry
[2] = xn = mol fraction of the nth substance listed; settings: 101 kPa, Liquid

- refractive index [1]: 1.5009 ± 0.0007
SMILES: c1ccccc1 [benzene]

- mass density ([2]; 293.15 K, x1 = 1): 878.96 ± 0.33 kg/m3
- mass density ([2]; 303.15 K, x1 = 1): 868.21 ± 0.34 kg/m3
- mass density ([2]; 313.15 K, x1 = 1): 857.4 ± 0.36 kg/m3
- mass density ([2]; 323.15 K, x1 = 1): 846.55 ± 0.38 kg/m3
- mass density ([2]; 333.15 K, x1 = 1): 835.66 ± 0.39 kg/m3
- mass density ([2]; 343.15 K, x1 = 1): 824.71 ± 0.41 kg/m3
SMILES: c1ccccc1 [benzene] + CN(C)C=O

SMILES: CN(C)C=O [dimethylformamide]
- refractive index [1]: 1.4307 ± 0.0007

SMILES: CN(C)C=O [dimethylformamide] + CCc1ccccc1
- mass density ([2]; 293.15 K, x2 = 0): 948.58 ± 0.25 kg/m3
- mass density ([2]; 303.15 K, x2 = 0): 939.46 ± 0.26 kg/m3
- mass density ([2]; 313.15 K, x2 = 0): 930.12 ± 0.28 kg/m3
- mass density ([2]; 323.15 K, x2 = 0): 920.55 ± 0.29 kg/m3
- mass density ([2]; 333.15 K, x2 = 0): 910.75 ± 0.3 kg/m3
- mass density ([2]; 343.15 K, x2 = 0): 900.73 ± 0.32 kg/m3
- mass density ([2]; 353.15 K, x2 = 0): 890.48 ± 0.34 kg/m3

- refractive index [1]: 1.4962 ± 0.0008
SMILES: CCc1ccccc1 [ethylbenzene]

SMILES: Cc1ccccc1 [toluene]
- refractive index [1]: 1.4965 ± 0.0008

SMILES: Cc1ccccc1 [toluene] + CN(C)C=O
- mass density ([2]; 293.15 K, x1 = 1): 866.8 ± 0.94 kg/m3
- mass density ([2]; 303.15 K, x1 = 1): 857.53 ± 0.94 kg/m3
- mass density ([2]; 313.15 K, x1 = 1): 848.23 ± 0.94 kg/m3
- mass density ([2]; 323.15 K, x1 = 1): 838.91 ± 0.94 kg/m3
- mass density ([2]; 333.15 K, x1 = 1): 829.55 ± 0.95 kg/m3
- mass density ([2]; 343.15 K, x1 = 1): 820.17 ± 0.95 kg/m3
- mass density ([2]; 353.15 K, x1 = 1): 810.77 ± 0.95 kg/m3
